Data as given in patent US20220017501A1, “MICROBIOCIDAL THIAZOLE DERIVATIVES” (SYNGENTA PARTICIPATIONS AG, priority 2018, published 2022).

What was measured:
[1] = tested on: Magnaporthe grisea (Pyricularia oryzae); assay: whole plant or invertebrate; assay type: in vivo; details: foliar, read-out: control of Magnaporthe grisea
[2] = tested on: Mycosphaerella graminicola (Septoria tritici); assay: Mycosphaerella graminicola (Septoria tritici) / liquid culture (Septoria blotch); assay type: cell-based; details: Zymoseptoria tritici, growth inhibition photometrically 4-5 days after application, read-out: control of Mycosphaerella graminicola
Procedure: (§1) Example B16: Mycosphaerella Graminicola (Septoria Tritici)/Liquid Culture (Septoria Blotch) Conidia of the fungus from cryogenic storage are directly mixed into nutrient broth (PDB potato dextrose broth). After placing a (DMSO) solution of test compound into a microtiter plate (96-well format), the nutrient broth containing the fungal spores is added. The test plates are incubated at 24° C. and the inhibition of growth is determined photometrically 4-5 days after application. […] […].23.

[3] = tested on: Monographella nivalis (Microdochium nivale); assay: Monographella nivalis (Microdochium nivale) / liquid culture (foot rot cereals); assay type: cell-based; details: growth inhibition photometrically 4-5 days after application, read-out: control of Monographella nivalis
Procedure: as §1, with “B7: Monographella Nivalis (Microdochium Nivale)/Liquid” for “B16: Mycosphaerella Graminicola (Septoria Tritici)/Liquid”, “(Foot Rot Cereals)” for “(Septoria Blotch)”

[4] = tested on: Blumeria graminis f. sp. tritici (Erysiphe graminis f. sp. tritici); assay: Blumeria graminis f. sp. tritici / wheat / leaf disc preventative (powdery mildew on wheat); assay type: in vivo; details: foliar, wheat leaf segments, compared to untreated control
Procedure: Example B4: Blumeria Graminis f. sp. Tritici (Erysiphe Graminis f. sp. Tritici)/Wheat/Leaf Disc Preventative (Powdery Mildew on Wheat) Wheat leaf segments cv. Kanzler are placed on agar in a multiwell plate (24-well format) and sprayed with the formulated test compound diluted in water. The leaf disks are inoculated by shaking powdery mildew infected plants above the test plates 1 day after application. The inoculated leaf disks are incubated at 20° C. and 60% rh under a light regime of 24 h darkness followed by 12 h light/12 h darkness in a climate chamber and the activity of a compound is assessed as percent disease control compared to untreated when an appropriate level of disease damage appears on untreated check leaf segments (6-8 days after application). […].23.

Pyrenophora teres = Pyrenophora teres / barley / leaf disc preventative (net blotch); assay type: in vivo; details: foliar, barley leaf segments, compared to untreated control
Procedure: Example B14: Pyrenophora Teres/Barley/Leaf Disc Preventative (Net Blotch) Barley leaf segments cv. Hasso are placed on agar in a multiwell plate (24-well format) and sprayed with the formulated test compound diluted in water. The leaf […] inoculated with a spore suspension of the fungus 2 days after application. The inoculated leaf segments are incubated at 20° C. and 65% rh under a light regime of 12 h light/12 h darkness in a climate cabinet and the activity of a compound is assessed as disease control compared to untreated when an appropriate level of disease damage appears in untreated check leaf segments (5-7 days after application). […] […].23.

[5] = tested on: Glomerella lagenarium (Colletotrichum lagenarium); assay: Glomerella lagenarium (Colletotrichum lagenarium) / liquid culture (anthracnose); assay type: cell-based; details: Colletotrichum orbiculare, growth inhibition photometrically 3-4 days after application, read-out: control of Glomerella lagenarium
Procedure: Example B3: Glomerella Lagenarium (Colletotrichum Lagenarium)/Liquid Culture (Anthracnose) Conidia of the fungus from cryogenic storage are directly mixed into nutrient broth (PDB potato dextrose broth). After placing a (DMSO) solution of test compound into a microtiter plate (96-well format), the nutrient broth containing the fungal spores is added. The test plates are incubated at 24° C. and the inhibition of growth is measured photometrically 3-4 days after application.

[6] = tested on: Mycosphaerella arachidis (Cercospora arachidicola); assay: Mycosphaerella arachidis (Cercospora arachidicola) / liquid culture (early leaf spot); assay type: cell-based; details: growth inhibition photometrically 4-5 days after application, read-out: control of Mycosphaerella arachidis
Procedure: as §1, with “B8:” for “B16:”, “Arachidis (Cercospora Arachidicola)/Liquid” for “Graminicola (Septoria Tritici)/Liquid”, “(Early Leaf Spot)” for “(Septoria Blotch)”

Cc1sc(N(C#N)c2cc(F)nc(F)c2)nc1C(=O)NC1CCC1 [I.a.23, 2-[cyano-(2,6-difluoro-4-pyridyl)amino]-N-cyclobutyl-5-methyl-thiazole-4-carboxamide]
≥ 80%: pest or weed control at 200 ppm [1] | inhibition of growth at 20 ppm [2] | inhibition of growth at 20 ppm [3] | pest or weed control at 200 ppm [4] | pest or weed control at 200 ppm (Pyrenophora teres)

Cc1sc(N(C#N)c2cc(F)cc(F)c2)nc1C(=O)NC1CCC1(C)C (stereo not shown) [I.b.08, 2-(N-cyano-3,5-difluoro-anilino)-N-(2,2-dimethylcyclobutyl)-5-methyl-thiazole-4-carboxamide]
≥ 80%: inhibition of growth at 20 ppm [5] | pest or weed control at 200 ppm [1] | inhibition of growth at 20 ppm [2] | inhibition of growth at 20 ppm [6] | inhibition of growth at 20 ppm [3] | pest or weed control at 200 ppm [4]

Cc1sc(N(C#N)c2cc(F)nc(F)c2)nc1C(=O)NCc1ccccc1 [I.o.23, N-benzyl-2-[cyano-(2,6-difluoro-4-pyridyl)amino]-5-methyl-thiazole-4-carboxamide]
≥ 80%: inhibition of growth at 20 ppm [5] | pest or weed control at 200 ppm [1] | inhibition of growth at 20 ppm [2] | inhibition of growth at 20 ppm [6] | inhibition of growth at 20 ppm [3] | pest or weed control at 200 ppm [4]

Cc1sc(N(C#N)c2cc(F)nc(F)c2)nc1C(=O)NC1CCC12CCC2 (stereo not shown) [I.e.23, 2-[cyano-(2,6-difluoro-4-pyridyl)amino]-5-methyl-N-spiro[3.3]heptan-3-yl-thiazole-4-carboxamide]
≥ 80%: inhibition of growth at 20 ppm [5] | pest or weed control at 200 ppm [1] | inhibition of growth at 20 ppm [2] | inhibition of growth at 20 ppm [6] | inhibition of growth at 20 ppm [3] | pest or weed control at 200 ppm [4]

Cc1sc(N(C#N)c2cc(F)nc(F)c2)nc1C(=O)NCC(C)(C)C [I.k.23, 2-[cyano-(2,6-difluoro-4-pyridyl)amino]-N-(2,2-dimethylpropyl)-5-methyl-thiazole-4-carboxamide]
≥ 80%: inhibition of growth at 20 ppm [5] | pest or weed control at 200 ppm [1] | inhibition of growth at 20 ppm [2] | inhibition of growth at 20 ppm [6] | inhibition of growth at 20 ppm [3] | pest or weed control at 200 ppm [4] | pest or weed control at 200 ppm (Pyrenophora teres)

CC1(C)CCC1NC(=O)c1nc(N(C#N)c2cc(F)nc(F)c2)sc1NC=O (stereo not shown) [I.b.25, 2-[cyano-(2,6-difluoro-4-pyridyl)amino]-N-(2,2-dimethylcyclobutyl)-5-formamido-thiazole-4-carboxamide]
≥ 80%: inhibition of growth at 20 ppm [5] | inhibition of growth at 20 ppm [2] | inhibition of growth at 20 ppm [3]

Cc1sc(N(C#N)c2cc(F)nc(F)c2)nc1C(=O)NCC(C)C [I.i.23, 2-[cyano-(2,6-difluoro-4-pyridyl)amino]-N-isobutyl-5-methyl-thiazole-4-carboxamide]
≥ 80%: inhibition of growth at 20 ppm [5] | pest or weed control at 200 ppm [1] | inhibition of growth at 20 ppm [2] | inhibition of growth at 20 ppm [3] | pest or weed control at 200 ppm [4] | pest or weed control at 200 ppm (Pyrenophora teres)

Cc1sc(N(C#N)c2cc(F)nc(F)c2)nc1C(=O)NC1CCC12CCCC2 (stereo not shown) [I.c.23, 2-[cyano-(2,6-difluoro-4-pyridyl)amino]-5-methyl-N-spiro[3.4]octan-3-yl-thiazole-4-carboxamide]
≥ 80%: inhibition of growth at 20 ppm [5] | pest or weed control at 200 ppm [1] | inhibition of growth at 20 ppm [2] | inhibition of growth at 20 ppm [6] | inhibition of growth at 20 ppm [3] | pest or weed control at 200 ppm [4] | pest or weed control at 200 ppm (Pyrenophora teres)

CCCCNC(=O)c1nc(N(C#N)c2cc(F)nc(F)c2)sc1C [I.p.23, N-butyl-2-[cyano-(2,6-difluoro-4-pyridyl)amino]-5-methyl-thiazole-4-carboxamide]
≥ 80%: inhibition of growth at 20 ppm [5] | pest or weed control at 200 ppm [1] | inhibition of growth at 20 ppm [2] | inhibition of growth at 20 ppm [6] | inhibition of growth at 20 ppm [3] | pest or weed control at 200 ppm [4] | pest or weed control at 200 ppm (Pyrenophora teres)

Cc1sc(N(C#N)c2cc(F)cc(F)c2)nc1C(=O)NC1(C)CCCC1 [I.g.08, 2-(N-cyano-3,5-difluoro-anilino)-5-methyl-N-(1-methylcyclopentyl)thiazole-4-carboxamide]
≥ 80%: inhibition of growth at 20 ppm [5] | pest or weed control at 200 ppm [1] | inhibition of growth at 20 ppm [6] | inhibition of growth at 20 ppm [3] | pest or weed control at 200 ppm [4]

Cc1sc(N(C#N)c2cc(F)nc(F)c2)nc1C(=O)NC1CCC12Cc1ccccc1C2 (stereo not shown) [I.d.23, 2-[cyano-(2,6-difluoro-4-pyridyl)amino]-5-methyl-N-spiro[cyclobutane-2,2′-indane]-1-yl-thiazole-4-carboxamide]
≥ 80%: inhibition of growth at 20 ppm [5] | pest or weed control at 200 ppm [1] | inhibition of growth at 20 ppm [2] | inhibition of growth at 20 ppm [6] | inhibition of growth at 20 ppm [3] | pest or weed control at 200 ppm [4] | pest or weed control at 200 ppm (Pyrenophora teres)

Cc1sc(N(C#N)c2cc(F)nc(F)c2)nc1C(=O)NC(C)c1ccccc1 (stereo not shown) [I.j.23, 2-[cyano-(2,6-difluoro-4-pyridyl)amino]-5-methyl-N-(1-phenylethyl)thiazole-4-carboxamide]
≥ 80%: inhibition of growth at 20 ppm [5] | pest or weed control at 200 ppm [1] | inhibition of growth at 20 ppm [2] | inhibition of growth at 20 ppm [3] | pest or weed control at 200 ppm [4]

Cc1sc(N(C#N)c2cc(F)nc(F)c2)nc1C(=O)NCC1(CC2CC2)CC1 [I.f.23, 2-[cyano-(2,6-difluoro-4-pyridyl)amino]-N-[[1-(cyclopropylmethyl)cyclopropyl]methyl]-5-methyl-thiazole-4-carboxamide]
≥ 80%: inhibition of growth at 20 ppm [5] | pest or weed control at 200 ppm [1] | inhibition of growth at 20 ppm [2] | inhibition of growth at 20 ppm [6] | inhibition of growth at 20 ppm [3] | pest or weed control at 200 ppm [4]

Cc1sc(N(C#N)c2cc(F)nc(F)c2)nc1C(=O)NC1(C)CCCC1 [I.g.23, 2-[cyano-(2,6-difluoro-4-pyridyl)amino]-5-methyl-N-(1-methylcyclopentyl)thiazole-4-carboxamide]
≥ 80%: inhibition of growth at 20 ppm [5] | pest or weed control at 200 ppm [1] | inhibition of growth at 20 ppm [2] | inhibition of growth at 20 ppm [6] | inhibition of growth at 20 ppm [3] | pest or weed control at 200 ppm [4] | pest or weed control at 200 ppm (Pyrenophora teres)

CCCCCNC(=O)c1nc(N(C#N)c2cc(F)nc(F)c2)sc1C [I.l.23, 2-[cyano-(2,6-difluoro-4-pyridyl)amino]-5-methyl-N-pentyl-thiazole-4-carboxamide]
≥ 80%: pest or weed control at 200 ppm [1] | inhibition of growth at 20 ppm [2] | inhibition of growth at 20 ppm [6] | inhibition of growth at 20 ppm [3] | pest or weed control at 200 ppm [4]

CCCCCCNC(=O)c1nc(N(C#N)c2cc(F)nc(F)c2)sc1C [I.h.23, 2-[cyano-(2,6-difluoro-4-pyridyl)amino]-N-hexyl-5-methyl-thiazole-4-carboxamide]
≥ 80%: inhibition of growth at 20 ppm [5] | pest or weed control at 200 ppm [1] | inhibition of growth at 20 ppm [2] | inhibition of growth at 20 ppm [6] | inhibition of growth at 20 ppm [3] | pest or weed control at 200 ppm [4]
